Paper PMC10638516 (Acta Pharmaceutica Sinica. B, 2023)

Molecular target: T1, hD3R (Homo sapiens, UniProt P35462)
Test: biochemical
Type: binding
Settings: Ki hD3, three experiments, means ± SEM

T1 sequence (P35462 whole entry): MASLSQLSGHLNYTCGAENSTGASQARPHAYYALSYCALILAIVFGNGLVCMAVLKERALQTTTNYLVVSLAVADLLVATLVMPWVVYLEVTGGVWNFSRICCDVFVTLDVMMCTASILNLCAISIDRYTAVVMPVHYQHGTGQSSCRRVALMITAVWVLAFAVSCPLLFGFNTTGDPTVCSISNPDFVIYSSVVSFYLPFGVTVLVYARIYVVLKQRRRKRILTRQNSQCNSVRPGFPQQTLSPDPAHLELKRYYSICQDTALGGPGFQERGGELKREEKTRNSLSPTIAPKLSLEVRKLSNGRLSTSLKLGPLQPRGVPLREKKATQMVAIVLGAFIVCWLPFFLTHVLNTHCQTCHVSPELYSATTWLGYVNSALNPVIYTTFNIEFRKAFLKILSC

| Structure (SMILES) | Ki [nM] |
| --- | --- |
| Cn1c2c(c3ccccc31)CN(CCCCNC(=O)c1ccc3[nH]cnc3c1)CC2 [36j] | 14.2 ± 0.7 |
| CCn1c2c(c3ccccc31)CN(CCCCNC(=O)c1cc3ccccc3[nH]1)CC2 [36k] | 15.5 ± 1.8 |
| Cn1c2c(c3ccccc31)CCN(CCCCNC(=O)c1cc3ccccc3[nH]1)C2 [42a] | 6.8 ± 0.8 |
| CCn1c2c(c3ccccc31)CCN(CCCCNC(=O)c1cc3ccccc3[nH]1)C2 [42b] | 12.9 ± 2.1 |
| Cn1c2c(c3ccccc31)CCN(CCCCNC(=O)c1ccc3nc[nH]c3c1)C2 [42e] | 203 |
| CCn1c2c(c3ccccc31)CCN(CCCCNC(=O)c1ccc3nc[nH]c3c1)C2 [42f] | 300 |
| Cn1c2c(c3ccccc31)CCN(CCCCNC(=O)c1ccc3[nH]c(=O)[nH]c3c1)C2 [42i] | 112 |
| CCn1c2c(c3ccccc31)CCN(CCCCNC(=O)c1ccc3[nH]c(=O)[nH]c3c1)C2 [42j] | 149 |

Same assay, conditions: read-out: % inhibition at 10 μmol/L hD3, 10 μmol/L test compound

| Structure (SMILES) | inhibition at 10 µM [%] |
| --- | --- |
| CCn1c2ccccc2c2cc(CNCCCNC(=O)N(C)C)ccc21 [22a] | 42.1 ± 2.2 |
| CCn1c2ccccc2c2cc(CNCCCNC(=O)c3cc4ccccc4[nH]3)ccc21 [22b] | 21.3 ± 8.5 |
| CCn1c2ccccc2c2cc(CNCCCNC(=O)c3nc4ccccc4[nH]3)ccc21 [22c] | 32.7 ± 11.4 |
| CCn1c2ccccc2c2cc(CNCCCCNC(=O)c3ccnc4ccccc34)ccc21 [23m] | 63.1 ± 0.2 |
| Cn1c2c(c3ccccc31)CN(CCCCNC(=O)c1cn3nc(Cl)ccc3n1)CC2 [36c] | 66.3 ± 9.1 |
| Cn1c2c(c3ccccc31)CN(CCCCNC(=O)c1cnc3ccccc3c1)CC2 [36d] | 42.5 ± 6.8 |
| Cn1c2c(c3ccccc31)CN(CCCCNC(=O)c1ccnc3ccccc13)CC2 [36e] | 68.1 ± 1.9 |
| Cn1c2c(c3ccccc31)CN(CCCCNC(=O)c1ccc3[nH]cnc3c1)CC2 [36j] | 74.4 ± 8.2 |
| CCn1c2c(c3ccccc31)CN(CCCCNC(=O)c1cc3ccccc3[nH]1)CC2 [36k] | 106 ± 2.2 |
| Cn1c2c(c3ccccc31)CCN(CCCCNC(=O)c1cc3ccccc3[nH]1)C2 [42a] | 106 ± 1.3 |
| CCn1c2c(c3ccccc31)CCN(CCCCNC(=O)c1cc3ccccc3[nH]1)C2 [42b] | 106 ± 3.6 |
| Cn1c2c(c3ccccc31)CCN(CCCCNC(=O)c1ccc3nc[nH]c3c1)C2 [42e] | 81.5 ± 0.6 |
| CCn1c2c(c3ccccc31)CCN(CCCCNC(=O)c1ccc3nc[nH]c3c1)C2 [42f] | 80.6 ± 1.1 |
| Cn1c2c(c3ccccc31)CCN(CCCCNC(=O)c1ccc(-c3cccnc3)cc1)C2 [42g] | 69.6 ± 0.8 |
| CCn1c2c(c3ccccc31)CCN(CCCCNC(=O)c1ccc(-c3cccnc3)cc1)C2 [42h] | 31.3 ± 0.6 |
| Cn1c2c(c3ccccc31)CCN(CCCCNC(=O)c1ccc3[nH]c(=O)[nH]c3c1)C2 [42i] | 85.2 ± 0.5 |
| CCn1c2c(c3ccccc31)CCN(CCCCNC(=O)c1ccc3[nH]c(=O)[nH]c3c1)C2 [42j] | 85.9 ± 0.07 |
| c1ccc2c(c1)[nH]c1ccc(CNCCCn3ccnc3)cc12 [compound 8] | 54.2 ± 7.7 |

System: ICR mice
Test: Apomorphine-induced climbing
Type: in vivo, mouse
Settings: i.p., apomorphine 1.0 mg/kg s.c.

| Structure (SMILES) | inhibition of apomorphine-induced climbing |
| --- | --- |
| CN(C)C(=O)N[C@H]1CC[C@H](CCN2CCN(c3cccc(Cl)c3Cl)CC2)CC1 [Cariprazine, cariprazine, reference compound] | dose-dependent inhibition |

Molecular target: T2, hD2R (Homo sapiens, UniProt P14416)
Test: biochemical
Type: binding
Settings: not given

T2 sequence (P14416 whole entry): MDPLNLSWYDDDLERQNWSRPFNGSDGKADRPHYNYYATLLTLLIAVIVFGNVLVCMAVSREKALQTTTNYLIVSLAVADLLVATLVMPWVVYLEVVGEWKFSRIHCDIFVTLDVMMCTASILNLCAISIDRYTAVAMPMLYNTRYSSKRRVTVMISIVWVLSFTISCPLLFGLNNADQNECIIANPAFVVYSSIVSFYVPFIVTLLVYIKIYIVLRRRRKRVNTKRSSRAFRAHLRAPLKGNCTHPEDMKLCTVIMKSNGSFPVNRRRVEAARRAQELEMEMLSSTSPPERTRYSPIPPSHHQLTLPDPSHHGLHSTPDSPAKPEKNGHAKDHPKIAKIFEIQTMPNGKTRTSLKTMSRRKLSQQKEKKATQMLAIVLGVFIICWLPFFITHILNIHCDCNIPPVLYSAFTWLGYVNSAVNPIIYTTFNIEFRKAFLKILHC

| Structure (SMILES) | Ki [nM] |
| --- | --- |
| Cn1c2c(c3ccccc31)CN(CCCCNC(=O)c1ccc3[nH]cnc3c1)CC2 [36j] | > 10000 |
| CCn1c2c(c3ccccc31)CN(CCCCNC(=O)c1cc3ccccc3[nH]1)CC2 [36k] | > 10000 |
| Cn1c2c(c3ccccc31)CCN(CCCCNC(=O)c1cc3ccccc3[nH]1)C2 [42a] | > 10000 |
| CCn1c2c(c3ccccc31)CCN(CCCCNC(=O)c1cc3ccccc3[nH]1)C2 [42b] | > 10000 |

Same assay, conditions: read-out: % inhibition at 10 μmol/L hD2

| Structure (SMILES) | inhibition at 10 µM [%] |
| --- | --- |
| CCn1c2ccccc2c2cc(CNCCCn3cnc4cncnc43)ccc21 [17e] | 10.6 ± 7.4 |
| CCn1c2ccccc2c2cc(CNCCCn3cnc4c(Cl)ncnc43)ccc21 [17f] | 12.8 ± 7.7 |
| CCn1c2ccccc2c2cc(CNCCCNC(=O)c3cc4ccccc4[nH]3)ccc21 [22b] | 8.1 ± 3.9 |
| CCn1c2ccccc2c2cc(CNCCCNC(=O)c3nc4ccccc4[nH]3)ccc21 [22c] | 22.4 ± 5.7 |
| Cn1c2c(c3ccccc31)CN(CCCCNC(=O)c1cn3nc(Cl)ccc3n1)CC2 [36c] | 21.1 ± 9 |
| Cn1c2c(c3ccccc31)CN(CCCCNC(=O)c1cnc3ccccc3c1)CC2 [36d] | 15.6 ± 12.9 |
| Cn1c2c(c3ccccc31)CN(CCCCNC(=O)c1ccnc3ccccc13)CC2 [36e] | -2 ± 17.4 |
| Cn1c2c(c3ccccc31)CN(CCCCNC(=O)c1ccc3[nH]cnc3c1)CC2 [36j] | 27.7 ± 1.4 |
| CCn1c2c(c3ccccc31)CN(CCCCNC(=O)c1cc3ccccc3[nH]1)CC2 [36k] | 13.2 ± 7.3 |
| Cn1c2c(c3ccccc31)CCN(CCCCNC(=O)c1cc3ccccc3[nH]1)C2 [42a] | 9.1 ± 16.4 |
| CCn1c2c(c3ccccc31)CCN(CCCCNC(=O)c1cc3ccccc3[nH]1)C2 [42b] | 17.5 ± 1.5 |
| Cn1c2c(c3ccccc31)CCN(CCCCNC(=O)c1ccc3nc[nH]c3c1)C2 [42e] | 49.7 ± 1.2 |
| CCn1c2c(c3ccccc31)CCN(CCCCNC(=O)c1ccc3nc[nH]c3c1)C2 [42f] | 54.1 ± 0.1 |
| Cn1c2c(c3ccccc31)CCN(CCCCNC(=O)c1ccc(-c3cccnc3)cc1)C2 [42g] | 37.8 ± 1 |
| CCn1c2c(c3ccccc31)CCN(CCCCNC(=O)c1ccc(-c3cccnc3)cc1)C2 [42h] | 28.9 ± 0.8 |
| Cn1c2c(c3ccccc31)CCN(CCCCNC(=O)c1ccc3[nH]c(=O)[nH]c3c1)C2 [42i] | 37.6 ± 0.2 |
| CCn1c2c(c3ccccc31)CCN(CCCCNC(=O)c1ccc3[nH]c(=O)[nH]c3c1)C2 [42j] | 48.8 ± 0.7 |
| c1ccc2c(c1)[nH]c1ccc(CNCCCn3ccnc3)cc12 [compound 8] | 33.2 ± 17.5 |

Molecular target: T2, hD2R
Test: not given
Type: cell-based
Settings: not given

| Structure (SMILES) | effect on ERK1/2 phosphorylation mediated by hD2R, compound alone (agonist mode) |
| --- | --- |
| CN(C)C(=O)N[C@H]1CC[C@H](CCN2CCN(c3cccc(Cl)c3Cl)CC2)CC1 [Cariprazine, cariprazine, reference compound] | did not exhibit significant effects |
| CCCN1CCO[C@@H]2c3cc(O)ccc3OC[C@H]21 [PD128907, reference compound] | but not CHO-hD2R cells |
| NCCc1ccc(O)c(O)c1 [dopamine, reference compound] | significantly increased |

Molecular target: T1, hD3R
Test: ERK1/2 phosphorylation
Type: cell-based
Settings: CHO-hD3R cells; quinpirole at 20 μmol/L

| Structure (SMILES) | effect on ERK1/2 phosphorylation mediated by hD3R, compound alone (agonist mode) |
| --- | --- |
| CCCN1CCO[C@@H]2c3cc(O)ccc3OC[C@H]21 [PD128907, reference compound] | full ERK1/2 phosphorylation |

System: ICR mice
Test: MK-801-induced hyperactivity
Settings: i.p., MK-801 0.3 mg/kg s.c., 60 min

| Structure (SMILES) | inhibition of MK-801-induced hyperactivity |
| --- | --- |
| CN(C)C(=O)N[C@H]1CC[C@H](CCN2CCN(c3cccc(Cl)c3Cl)CC2)CC1 [Cariprazine, cariprazine, reference compound] | dose-dependently inhibited |

Molecular target: dopamine D3 receptor
Test: not given
Settings: read-out: D3R Ki; reference modulators of the pERK assay; cited from earlier work

| Structure (SMILES) | Ki [nM] |
| --- | --- |
| CCCN1CCO[C@@H]2c3cc(O)ccc3OC[C@H]21 [PD128907, reference compound] | 1 |
